Tests used:
Experiment in all cases: relative viability (nuclei count vs DMSO), 5 days (fraction); higher = more cells survive
[1] = test system: NCI-H1437
Summary of the method: (§1)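 Lung cancer cell lines were pin-tool dosed in 1536-well plates on the day after seeding, with either a lone drug or a fixed anchor-drug dose plus five library-drug doses (not always all listed) in √10 steps. Nuclei were counted on 4× images after 5 days. Relative viability is the ratio of treated-well to vehicle-well nuclei counts, with each value a median of duplicate plates.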

[2] = test system: NCI-H2009
Summary of the method: as §1

[3] = test system: SW 1573
Summary of the method: as §1

[4] = test system: HCC-366
Summary of the method: as §1

[5] = test system: NCI-H727
Summary of the method: as §1

[6] = test system: NCI-H23
Summary of the method: as §1

[7] = test system: NCI-H2228
Summary of the method: as §1

[8] = test system: HCC-827
Summary of the method: as §1

[9] = test system: CAL-12T
Summary of the method: as §1

[10] = test system: LCLC-103H
Summary of the method: as §1

[11] = test system: HOP-62
Summary of the method: as §1

[12] = test system: NCI-H460
Summary of the method: as §1

[13] = test system: NCI-H1355
Summary of the method: as §1

[14] = test system: EMC-BAC-2
Summary of the method: as §1

[15] = test system: COR-L 105
Summary of the method: as §1

[16] = test system: NCI-H1792
Summary of the method: as §1

[17] = test system: HARA
Summary of the method: as §1

[18] = test system: NCI-H1975
Summary of the method: as §1

[19] = test system: NCI-H1915
Summary of the method: as §1

[20] = test system: NCI-H1755
Summary of the method: as §1

[21] = test system: SK-LU-1
Summary of the method: as §1

[22] = test system: A-427
Summary of the method: as §1

`C[C@@H]1CN(CC(=O)Nc2ccc3c(c2)Cc2cccc(-c4cc(=O)cc(N5CCOCC5)o4)c2S3)C[C@H](C)O1` + C[C@@H](Oc1cc(-c2cnn(C3CCNCC3)c2)cnc1N)c1c(Cl)ccc(F)c1Cl [Crizotinib] (partner 1 µM) showed a relative viability ([1]; first compound 0.04 µM) of 0.986, a relative viability ([1]; first compound 0.1265 µM) of 0.899 and a relative viability ([1]; first compound 0.4 µM) of 0.924. It also gave a relative viability ([1]; first compound 4 µM) of 0.778, a relative viability ([2]; first compound 0.04 µM) of 1.05 and a relative viability ([2]; first compound 0.1265 µM) of 1.03. For the same compound, the relative viability ([2]; first compound 0.4 µM) was 1.09, the relative viability ([2]; first compound 4 µM) was 0.769 and the relative viability ([3]; first compound 0.04 µM) was 0.904. The relative viability ([3]; first compound 0.1265 µM) was 0.918, the relative viability ([3]; first compound 0.4 µM) was 0.744 and the relative viability ([3]; first compound 4 µM) was 0.746. It also gave a relative viability ([4]; first compound 0.04 µM) of 0.5, a relative viability ([4]; first compound 0.1265 µM) of 0.532 and a relative viability ([4]; first compound 0.4 µM) of 0.414. The relative viability ([4]; first compound 4 µM) was 0.414, the relative viability ([5]; first compound 0.04 µM) was 0.891 and the relative viability ([5]; first compound 0.1265 µM) was 0.746. The relative viability ([5]; first compound 0.4 µM) was 0.927, the relative viability ([5]; first compound 4 µM) was 0.624 and the relative viability ([6]; first compound 0.04 µM) was 0.521. It also gave a relative viability ([6]; first compound 0.1265 µM) of 0.487, a relative viability ([6]; first compound 0.4 µM) of 0.369 and a relative viability ([6]; first compound 4 µM) of 0.487. It also gave a relative viability ([7]; first compound 0.04 µM) of 0.568, a relative viability ([7]; first compound 0.1265 µM) of 0.394 and a relative viability ([7]; first compound 0.4 µM) of 0.283. For the same compound, the relative viability ([7]; first compound 4 µM) was 0.341, the relative viability ([8]; first compound 0.04 µM) was 1 and the relative viability ([8]; first compound 0.1265 µM) was 0.817. For the same compound, the relative viability ([8]; first compound 0.4 µM) was 0.929, the relative viability ([8]; first compound 4 µM) was 0.983 and the relative viability ([9]; first compound 0.04 µM) was 0.644. For the same compound, the relative viability ([9]; first compound 0.1265 µM) was 0.526, the relative viability ([9]; first compound 0.4 µM) was 0.693 and the relative viability ([9]; first compound 4 µM) was 0.297. For the same compound, the relative viability ([10]; first compound 0.04 µM) was 1.08, the relative viability ([10]; first compound 0.1265 µM) was 1.03 and the relative viability ([10]; first compound 0.4 µM) was 0.984. For the same compound, the relative viability ([10]; first compound 4 µM) was 1.03, the relative viability ([11]; first compound 0.04 µM) was 0.876 and the relative viability ([11]; first compound 0.1265 µM) was 1. For the same compound, the relative viability ([11]; first compound 0.4 µM) was 0.884, the relative viability ([11]; first compound 4 µM) was 0.941 and the relative viability ([12]; first compound 0.04 µM) was 0.973. For the same compound, the relative viability ([12]; first compound 0.1265 µM) was 0.924, the relative viability ([12]; first compound 0.4 µM) was 0.971 and the relative viability ([12]; first compound 4 µM) was 0.662. For the same compound, the relative viability ([13]; first compound 0.04 µM) was 0.955, the relative viability ([13]; first compound 0.1265 µM) was 1.07 and the relative viability ([13]; first compound 0.4 µM) was 1.03. The relative viability ([13]; first compound 4 µM) was 1.1, the relative viability ([14]; first compound 0.04 µM) was 0.57 and the relative viability ([14]; first compound 0.1265 µM) was 0.761. The relative viability ([14]; first compound 0.4 µM) was 0.75, the relative viability ([14]; first compound 4 µM) was 0.819 and the relative viability ([15]; first compound 0.04 µM) was 0.766. The relative viability ([15]; first compound 0.1265 µM) was 0.862, the relative viability ([15]; first compound 0.4 µM) was 0.881 and the relative viability ([15]; first compound 4 µM) was 0.435. It also gave a relative viability ([16]; first compound 0.04 µM) of 0.966, a relative viability ([16]; first compound 0.1265 µM) of 0.921 and a relative viability ([16]; first compound 0.4 µM) of 0.959. It also gave a relative viability ([16]; first compound 4 µM) of 0.932, a relative viability ([17]; first compound 0.04 µM) of 0.697 and a relative viability ([17]; first compound 0.1265 µM) of 0.96. For the same compound, the relative viability ([17]; first compound 0.4 µM) was 1.07, the relative viability ([17]; first compound 4 µM) was 0.988 and the relative viability ([18]; first compound 0.04 µM) was 0.947. For the same compound, the relative viability ([18]; first compound 0.1265 µM) was 0.905, the relative viability ([18]; first compound 0.4 µM) was 0.937 and the relative viability ([18]; first compound 4 µM) was 0.781. The relative viability ([19]; first compound 0.04 µM) was 0.9, the relative viability ([19]; first compound 0.1265 µM) was 0.886 and the relative viability ([19]; first compound 0.4 µM) was 0.95. The relative viability ([19]; first compound 4 µM) was 0.853, the relative viability ([20]; first compound 0.04 µM) was 0.92 and the relative viability ([20]; first compound 0.1265 µM) was 0.86. It also gave a relative viability ([20]; first compound 0.4 µM) of 0.816, a relative viability ([20]; first compound 4 µM) of 0.792 and a relative viability ([21]; first compound 0.04 µM) of 1.08. It also gave a relative viability ([21]; first compound 0.1265 µM) of 0.905, a relative viability ([21]; first compound 0.4 µM) of 0.902 and a relative viability ([21]; first compound 4 µM) of 0.605. It also gave a relative viability ([22]; first compound 0.04 µM) of 1.04, a relative viability ([22]; first compound 0.1265 µM) of 0.941 and a relative viability ([22]; first compound 0.4 µM) of 0.827. For the same compound, the relative viability ([22]; first compound 4 µM) was 0.844.

Reference: the supplement of paper PMC10307832
